Assay results from patent publication US20130217908A1, “STABILISATION OF RADIOPHARMACEUTICAL PRECURSORS” (GE HEALTHCARE LIMITED, priority 2010, published 2013).

What was measured:
[1] = Storage stability of the precursor of formula II with or without a drying agent, degradation by 19F NMR; assay type: physicochemical
Experimental: To test the stability of the precursor of formula II when packed with a drying agent, a sample of the precursor was analysed by ^19F and ^1H measurements.
The following drying agents were used:
Molecular sieve: 0.4 nm, Merck, Art. 5708, beads about 2 mm, pore size 4A Silica: Kiselgel, Merck, product no. 1.01969.5000
The drying agents used in the tests are typical drying agents for removing water from solvents and desiccators. The drying agents were both dried at 120° C. for about 90 hours before use.
The storage conditions for the precursor together with a drying agent were tested by storing together in the bottom of a small sample glass (mixed together) placed on a shelf in the lab (i.e. at room temperature). Also some samples without drying agent were set up. The first analysis of the samples with solid product was performed after 3.5 months storage and a second analysis was carried out after 5 months storage.

[2] = Earlier stability testing of the compound of formula II at set storage temperatures; assay type: physicochemical
[3] = solid, stored in a small sample glass at room temperature
[4] = solid, stored in a small sample glass at room temperature, listed as precursor
[5] = stored in freezer, reference, no drying agent

CCOC(=O)[C@]1(NC(=O)OC(C)(C)C)C[C@@H](OS(=O)(=O)C(F)(F)F)C1 [PRECURSOR, 1-(N-(t-butoxycarbonyl)amino)-3-[((trifluoromethyl)sulfonyl)oxy]-cyclobutane-1-carboxylic acid ethyl ester]
19F NMR results, degradation (mole %) after 3.5 months [1, 3]: 30.7 mole % | 19F NMR results, degradation (mole %) after 3.5 months [1, 4]: about 30 mole % | 19F NMR results, degradation (mole %) after 5 months [1, 3]: 96.6 mole % | 19F NMR results, degradation (mole %) after 5 months [1, 4]: about 97 mole % | 19F NMR results, degradation (mole %) after 3.5 months [1, 5]: 0.7 mole % | 19F NMR results, degradation (mole %) after 5 months [1, 5]: 0.6 mole % | hygroscopicity (observation) [2]: hygroscopic | period over which the compound is stable ([2]; stability testing at 25° C.): ~1 month | stability at storage conditions ([2]; storage between −20° C. and −5° C.): acceptable stability
